Values of other authors, collected in patent publication US8409558B2, “Method for treatment of onychomycosis” (priority 2005, dated 2013).

Test system: onychomycosis (nail fungus)

SMILES: CN(C/C=C/C#CC(C)(C)C)Cc1cccc2ccccc12 [Lamisil, terbinafine]
- complete cure (continuous oral therapy): 41%
- mycological cure (continuous oral therapy): 71%
- cure of all nails (complete cure of all nails after 1 yr; % effective) (oral therapy, Warshaw et al. JAAD October 2005): 25%
